Measurements reported in article PMC11647902, “Design, Synthesis, and Biological Evaluation of [1,2,5]Oxadiazolo[3,4-b]pyridin-7-ol as Mitochondrial Uncouplers for the Treatment of Obesity and Metabolic Dysfunction-Associated Steatohepatitis” (Journal of Medicinal Chemistry, 2024).

System: L6 rat myoblasts
Assay: OCR Seahorse assay (oxygen consumption rate, mitochondrial uncoupling)
Settings: for % of BAM15 OCR / uncoupling (OCR) activity in words / cellular toxicity in OCR assay: L6 myoblasts; for % of BAM15 OCR / Emax at 200 µM: integrated area under OCR dose curve above baseline relative to BAM15 of same experiment; for Emax at 200 µM: L6, read-out: % of BAM15 OCR, L6 myoblasts; for cellular toxicity in OCR assay: at higher concentrations
[1] = NA = No Activity, highest tested concentration 200 μM
[2] = OCR in L6 myoblasts, NA = No Activity, highest tested concentration 200 μM
[3] = Rattus norvegicus, NA = No Activity, highest tested concentration 200 μM

Procedure: With 7 and 9 derivatives in hand, we screened for mitochondrial uncoupling activity as a function of oxygen consumption rate (OCR). […] OCR was measured using an Agilent Seahorse XF24 or XFe96 Analyzer (Agilent Technologies, Santa Clara, CA). L6 myoblasts were seeded in a Seahorse 24 or 96-well tissue culture plate at a density of 3.5 × 10^4 cells/well. The cells were then allowed to adhere overnight. […] Compounds were injected during the assay, and OCR was measured using 2 min measurement periods. Cells were treated with a single drug concentration per well and measured over a 90 min period. Two wells were used per condition and, where applicable, results from multiple plates were averaged together. The first three measurements after injection for each concentration were averaged to produce a dose curve. […] AUC values were also calculated using the same software.

Compound	EC50 (Rattus norvegicus, L6)	Emax at 200 µM [3]	also measured
6-((4-Butoxyphenyl)amino)-[1,2,5]oxadiazolo[3,4-b]pyridin-7-ol [7f]	–	–	% of BAM15 OCR [1]: 20%; EC50 [2]: 6 µM
6-([1,1′-Biphenyl]-2-ylamino)-[1,2,5]oxadiazolo[3,4-b]pyridin-7-ol [7aj]	–	–	% of BAM15 OCR [1]: 20%; EC50 [2]: 6 ± 1.2 µM
Oc1c(Nc2ccccc2)cnc2nonc12 [7a, 6-(Phenylamino)-[1,2,5]oxadiazolo[3,4-b]pyridin-7-ol]	59 ± 3.4 µM	40%	–
Oc1c(Nc2cccc(Cl)c2F)cnc2nonc12 [7aa, 6-((3-Chloro-2-fluorophenyl)amino)-[1,2,5]oxadiazolo[3,4-b]pyridin-7-ol]	32 ± 1.9 µM	68%	–
Oc1c(Nc2cccc(C(F)(F)F)c2F)cnc2nonc12 [7ab, 6-((2-Fluoro-3-(trifluoromethyl)phenyl)amino)-[1,2,5]oxadiazolo[3,4-b]pyridin-7-ol]	43 ± 5.2 µM	71%	–
Oc1c(Nc2cc(C(F)(F)F)ccc2F)cnc2nonc12 [7ac, 6-((2-Fluoro-5-(trifluoromethyl)phenyl)amino)-[1,2,5]oxadiazolo[3,4-b]pyridin-7-ol]	11 ± 6.7 µM	55%	–
Oc1c(Nc2c(F)cccc2C(F)(F)F)cnc2nonc12 [7ad, 6-((2-Fluoro-6-(trifluoromethyl)phenyl)amino)-[1,2,5]oxadiazolo[3,4-b]pyridin-7-ol]	28 ± 3.9 µM	55%	–
Oc1c(Nc2cc(C(F)(F)F)c(F)cc2F)cnc2nonc12 [7ae, 6-((2,4-Difluoro-5-(trifluoromethyl)phenyl)amino)-[1,2,5]oxadiazolo[3,4-b]pyridin-7-ol]	40 ± 4.5 µM	48%	–
Oc1c(Nc2cc(F)ccc2C(F)(F)F)cnc2nonc12 [7af, 6-((5-Fluoro-2-(trifluoromethyl)phenyl)amino)-[1,2,5]oxadiazolo[3,4-b]pyridin-7-ol]	25 ± 12 µM	54%	–
Oc1c(Nc2cc(F)cc(C(F)(F)F)c2)cnc2nonc12 [7ag, 6-((3-Fluoro-5-(trifluoromethyl)phenyl)amino)-[1,2,5]oxadiazolo[3,4-b]pyridin-7-ol]	40 ± 0.9 µM	38%	–
Oc1c(Nc2ccc(-c3ccccc3)cc2F)cnc2nonc12 [7ah, 6-((3-Fluoro-[1,1′-biphenyl]-4-yl)amino)-[1,2,5]oxadiazolo[3,4-b]pyridin-7-ol]	2 ± 0.5 µM	10%	–
Oc1c(Nc2ccc(-c3ccccc3F)cc2)cnc2nonc12 [7ak, 6-((2′-Fluoro-[1,1′-biphenyl]-4-yl)amino)-[1,2,5]oxadiazolo[3,4-b]pyridin-7-ol]	–	–	uncoupling (OCR) activity in words: not tolerated
Oc1c(Nc2ccc(-c3cccc(C(F)(F)F)c3)cc2)cnc2nonc12 [7an, 6-((3′-(Trifluoromethyl)-[1,1′-biphenyl]-4-yl)amino)-[1,2,5]oxadiazolo[3,4-b]pyridin-7-ol]	0.5 ± 0.1 µM	25%	cellular toxicity in OCR assay: showed cellular toxicity at higher concentrations
Oc1c(Nc2ccc(-c3ccc(C(F)(F)F)cc3)cc2)cnc2nonc12 [7aq, 6-((4′-(Trifluoromethyl)-[1,1′-biphenyl]-4-yl)amino)-[1,2,5]oxadiazolo[3,4-b]pyridin-7-ol]	–	–	uncoupling (OCR) activity in words: not tolerated; cellular toxicity in OCR assay: exhibited toxicity
Oc1c(Nc2ccc(-c3ccc(C(F)(F)F)nc3)cc2)cnc2nonc12 [7ar, 6-((4-(6-(Trifluoromethyl)pyridin-3-yl)phenyl)amino)-[1,2,5]oxadiazolo[3,4-b]pyridin-7-ol]	7 ± 1.9 µM	17%	–
Oc1c(Nc2ccc(-c3cc(C(F)(F)F)cc(C(F)(F)F)c3)cc2)cnc2nonc12 [7aw, 6-((3′,5′-Bis(trifluoromethyl)-[1,1′-biphenyl]-4-yl)amino)-[1,2,5]oxadiazolo[3,4-b]pyridin-7-ol]	41 ± 4.9 µM	20%	–

Compound	EC50 (Rattus norvegicus, L6)	Emax at 200 µM [3]	also measured
Oc1c(Nc2ccc3ccccc3c2)cnc2nonc12 [7ax, 6-(Naphthalen-2-ylamino)-[1,2,5]oxadiazolo[3,4-b]pyridin-7-ol]	13 ± 1.2 µM	48%	–
Cc1ccc(Nc2cnc3nonc3c2O)cc1 [7b, 6-(p-Tolylamino)-[1,2,5]oxadiazolo[3,4-b]pyridin-7-ol]	49 µM	38%	–
CCc1ccc(Nc2cnc3nonc3c2O)cc1 [7c, 6-((4-Ethylphenyl)amino)-[1,2,5]oxadiazolo[3,4-b]pyridin-7-ol]	14 ± 1.7 µM	50%	–
CCCCc1ccc(Nc2cnc3nonc3c2O)cc1 [7d, 6-((4-Butylphenyl)amino)-[1,2,5]oxadiazolo[3,4-b]pyridin-7-ol]	–	19%	–
CC(C)(C)c1ccc(Nc2cnc3nonc3c2O)cc1 [7e, 6-((4-(tert-Butyl)phenyl)amino)-[1,2,5]oxadiazolo[3,4-b]pyridin-7-ol]	2 ± 0.4 µM	7%	–
CC(C)(C#N)c1ccc(Nc2cnc3nonc3c2O)cc1 [7g, 2-(4-((7-Hydroxy-[1,2,5]oxadiazolo[3,4-b]pyridin-6-yl)amino)phenyl)-2-methylpropanenitrile]	> 100 µM	10%	–
Oc1c(Nc2ccc(SC(F)(F)F)cc2)cnc2nonc12 [7h, 6-((4-((Trifluoromethyl)thio)phenyl)amino)-[1,2,5]oxadiazolo[3,4-b]pyridin-7-ol]	6 ± 0.4 µM	38%	–
Oc1c(Nc2ccc(F)nc2)cnc2nonc12 [7k, 6-((6-Fluoropyridin-3-yl)amino)-[1,2,5]oxadiazolo[3,4-b]pyridin-7-ol]	–	–	uncoupling (OCR) activity in words: inactive
Oc1c(-c2ccc(C(F)(F)F)nc2)cnc2nonc12 [7l, 6-(6-(Trifluoromethyl)pyridin-3-yl)-[1,2,5]oxadiazolo[3,4-b]pyridin-7-ol]	–	–	uncoupling (OCR) activity in words: inactive
Oc1c(Nc2ccccc2F)cnc2nonc12 [7m, 6-((2-Fluorophenyl)amino)-[1,2,5]oxadiazolo[3,4-b]pyridin-7-ol]	32 ± 1.8 µM	69%	increase of BAM15 uncoupling capability compared with the nonsubstituted aniline (7m versus 7a): 72%
Oc1c(Nc2cccc(F)c2)cnc2nonc12 [7n, 6-((3-Fluorophenyl)amino)-[1,2,5]oxadiazolo[3,4-b]pyridin-7-ol]	51 ± 2.6 µM	55%	–
Oc1c(Nc2ccc(F)cc2)cnc2nonc12 [7o, 6-((4-Fluorophenyl)amino)-[1,2,5]oxadiazolo[3,4-b]pyridin-7-ol]	> 100 µM	32%	–
Oc1c(Nc2ccccc2Cl)cnc2nonc12 [7p, 6-((2-Chlorophenyl)amino)-[1,2,5]oxadiazolo[3,4-b]pyridin-7-ol]	27 ± 1.9 µM	69%	–
Oc1c(Nc2ccccc2C(F)(F)F)cnc2nonc12 [7q, 6-((2-(Trifluoromethyl)phenyl)amino)-[1,2,5]oxadiazolo[3,4-b]pyridin-7-ol]	34 ± 4 µM	57%	–
Oc1c(Nc2cccc(C(F)(F)F)c2)cnc2nonc12 [7r, 6-((3-(Trifluoromethyl)phenyl)amino)-[1,2,5]oxadiazolo[3,4-b]pyridin-7-ol]	22 ± 1.8 µM	48%	–
Oc1c(Nc2ccc(C(F)(F)F)cc2)cnc2nonc12 [7s, 6-((4-(Trifluoromethyl)phenyl)amino)-[1,2,5]oxadiazolo[3,4-b]pyridin-7-ol]	35 ± 1.7 µM	43%	–
